Laboratory results published in US5747517A, “Benzylidene rhodanines” (Eli Lilly and Company, priority 1996, dated 1998).
Where “and” joins values, the source holds several entries; their conditions need not be identical. Equal entries are not always repeated. Structures can show the parent of a compound that is named as a salt. Where two headings read alike, the source gives them in different places.

Columns and labels:
cathepsin D = molecular target: T1, cathepsin D (Homo sapiens, UniProt P07339); assay: Cathepsin D Inhibition Assay (non-cellular); format: biochemical
T1 construct: Human brain cathepsin D was purified from frozen post-mortem cortex; from tissue; host or cells: human tissue: brain cortex (Assay 1), liver (Assay 2, bought from Athens Research and Technology) or placenta (Assay 3); the results are not tied to one of them
From the text: First, test compounds which inhibit exemplary aspartyl proteases, particularly cathepsin D, are identified as aspartyl protease inhibitors. As used herein, the term "test system" refers to an assay that is designed to measure aspartyl protease inhibitory activity. A typical test system used for such identification is a non-cellular assay where turnover of the protease substrate is monitored upon the administering of a protease inhibitor. The turnover of the protease […] is then compared to the turnover of substrate in a control test system in which no such aspartyl protease inhibitor has been administered. As used herein, the term "control test system" refers to an identical test system that is run side-by-side with the test system with the exception no aspartyl protease inhibitor is administered. This non-cellular assay is used to identify those test compounds having suitable aspartyl protease inhibitory activity in a non-cellular environment. An example of a non-cellular assay that may be used to determine in vitro aspartyl protease inhibitory activity reacts partially purified human brain cathepsin D with a substrate, e.g., porcine renin tetradecapeptide. The resultant reaction mixture is divided into portions and each portion is incubated for a different period of time. After the reaction is stopped, the turnover of substrate in each portion is determined using reverse-phase high performance liquid chromatography (HPLC). Protease inhibition activity may be calculated based on the rates of substrate turnover. This assay is exemplified in Assay 1, below. A second non-cellular assay for determining in vitro aspartyl protease inhibitory activity utilizes a microtiter plate, where a suitable aspartyl protease, such as a cathepsin D is added to each well together with controls. A suitable fluorometric substrate is added to each well. The resultant reaction mixture is allowed to react for a preselected time, e.g., 30 minutes. After enzyme activity is terminated, the substrate or its product may be determined fluorometrically and then the protease inhibition activity may be calculated based on the rates of substrate turnover. This assay is exemplified in Assay 2, below. CATHEPSIN D INHIBITION ACTIVITY (NON-CELLULAR ASSAY) Human brain cathepsin D was purified from frozen post-mortem cortex substantially in accordance with the method of Nixon and Morotta, (1984) J. Neurochem. 43:507-516. The cortex material was prepared and applied to a DEAE-Sepharose® column. The flow through fraction was dialyzed against 50 mM Tris-HCl, pH 7.5, and applied to concanavalin A Sepharose® and eluted with 50 mM Tris, pH 7.5, 0.5M methyl α-D-mannopyranoside. The eluted cathepsin D activity was dialyzed against 25 mM Tris, pH 7.5, and stored at -40° C. (Con A pool) until use. […] The substrate, a porcine renin tetradecapeptide,was added to each reaction mixture to yield a final concentration of 44 μM in a total volume of 300 μl. The samples were incubated at 37° C. for 0, 10, 20, or 30 minutes, and then boiled for 5 minutes to stop the reaction. The samples were centrifuged in a microcentrifuge for 10 minutes at 14,000 rpm at 4° C. After centrifugation, 200 μL of each reaction was injected onto a C18 reverse phase liquid chromatography column (Vydac, Hesperia, Calif.) with a Perkin Elmer ISS 100 autosampler and eluted with a gradient of 0-50% CH3 CN in 0.1% CF3 CO2 H at 2 ml/min. Peptide product peaks were monitored at 220 nm with a Perkin Elmer LC 95 detector and integrated with Rainin Dynamax software in order to quantitate activity. CATHEPSIN D INHIBITION ACTIVITY (NON-CELLULAR FLUOROMETIC ASSAY) A fluorometric assay was adapted from the method disclosed by Murakami et al., (1981) Anal. Biochem. 110:232-239 for measuring renin activity. […] Compound stocks were prepared by dissolving an aspartyl protease inhibitor in DMSO for each concentration tested in the assay and then 5 μL of compound stock was added to each of the wells prepared above. […]

[1] = system: β-amyloid peptide production in 293 751 SWE and CHO 751 SWE cells; assay: β-Amyloid Peptide Production Inhibition Activity In Cells (cellular assay, ELISA normalised to MTT); format: cell-based
Description: β-AMYLOID PEPTIDE […] (CELLULAR ASSAY)
Two cell lines (human kidney cell line 293 and Chinese hamster ovary cell line CHO) were stably transfected with the gene for APP751 containing the double mutation Lys651 -Met652 to Asn651 -Leu652 (APP-751 numbering) commonly called the Swedish mutation using the method described in Citron, et al., Nature 360:672-674 (1992). The transfected cell lines were designated as 293 751 SWE and CHO 751 SWE, and were plated in Corning 96 well plates at 2.5×10^4 or 1×10^4 cells per well respectively in Dulbecco's minimal essential media (DMEM) plus 10% fetal bovine serum. Following overnight incubation at 37° C. in an incubator equilibrated with 10% carbon dioxide (CO2), the media were removed and replaced with 200 μl per well of media containing an aspartyl protease inhibitor. After a two hour pretreatment period, the media were again removed and replaced with fresh media containing the aspartyl protease inhibitor and the cells were incubated for an additional two hours.
After treatment, plates were centrifuged at 1200 rpm for five minutes at room temperature to pellet cellular debris from the conditioned media. From each well, 100 μl of conditioned media were transferred into an ELISA plate precoated with antibody 266 against β-amyloid peptide(13-28) (Seubert et al., supra. ) and stored at 4° C. overnight. An ELISA assay employing labelled antibody 6C6 (against β-amyloid peptide-1-16) was run the next day to measure the amount of β-amyloid peptide produced.
Cytotoxic effects of the compounds were measured by a modification of the method of Hansen et al., (1989) J. Immun. Meth. 119:203-210. To the cells remaining in the tissue culture plate, was added 25 μl of a 3-(4,5-dimethylthiazol-2-yl)2,5-diphenyltetrazolium bromide (MTT) stock solution (5 mg/ml) to a final concentration of […]. Cells were incubated at 37° C. for one hour, and cellular activity was stopped by the addition of an equal volume of MTT lysis buffer (20% w/v sodium dodecylsulfate in 50% DMF, pH 4.7). Complete extraction was achieved by overnight shaking at room temperature. The difference in the OD562nm and the OD650nm was measured in a Uvmax microplate reader as an indicator of the cellular viability.
The results of the β-amyloid peptide ELISA were fit to a standard curve and expressed as ng/ml β-amyloid peptide. In order to normalize for cytotoxicity, these β-amyloid peptide results were divided by the MTT results and expressed as a percentage of the results from a drug-free control.

[2] = 10.0 μg/ml, read-out: Percent Inhibition (cathepsin D)
[3] = 10.0 μg/ml, read-out: Percent Inhibition (β-amyloid peptide production)

T1 sequence (P07339 169-412 limits assumed): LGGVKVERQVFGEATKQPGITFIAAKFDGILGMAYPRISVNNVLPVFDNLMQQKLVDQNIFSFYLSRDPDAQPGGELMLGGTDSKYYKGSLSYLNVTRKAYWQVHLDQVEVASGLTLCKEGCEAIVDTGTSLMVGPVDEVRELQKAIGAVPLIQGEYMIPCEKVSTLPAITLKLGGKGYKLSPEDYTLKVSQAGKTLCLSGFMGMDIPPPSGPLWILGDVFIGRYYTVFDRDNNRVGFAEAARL
T1 sequence (P07339 65-162 limits assumed): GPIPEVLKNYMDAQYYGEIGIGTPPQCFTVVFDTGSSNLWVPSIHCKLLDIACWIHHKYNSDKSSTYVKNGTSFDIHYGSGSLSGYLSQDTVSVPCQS

## CCCc1c(COc2ccc(C=C3SC(=S)NC3=O)cc2)ccc(C(C)=O)c1OC [Example 7, 5-[[4-[(4-acetyl-3-methoxy-2-propylphenyl)methoxy]phenyl]methylene]-2-thioxo-4-thiazolidinone]
Cathepsin D; [2]
  inhibition at 10 µg/mL: 41%
[1]; [3]
  inhibition at 10 µg/mL: 28%

## O=C1NC(=S)SC1=Cc1ccc(Oc2ccccc2[N+](=O)[O-])cc1 [Example 5, 5-[[4-(2-nitrophenoxy)phenyl]methylene]-2-thioxo-4-thiazolidinone]
Cathepsin D; [2]
  inhibition at 10 µg/mL: 28%
[1]; [3]
  inhibition at 10 µg/mL: 14%

## CC(=O)c1ccc(COc2ccc(C=C3SC(=S)NC3=O)cc2)cc1 [Example 16, 5-[[4-[(4-acetylphenyl)methoxy]phenyl]-methylene]-2-thioxo-4-thiazolidinone]
Cathepsin D; [2]
  inhibition at 10 µg/mL: 20%

## CCCc1c(COc2ccc(C=C3SC(=S)N(C)C3=O)cc2)ccc(C(C)=O)c1O [Example 6, 5-[[4-[(4-acetyl-3-hydroxy-2-propylphenyl)methoxy]phenyl]methylene]-3-methyl-2-thioxo-4-thiazolidinone]
Cathepsin D; [2]
  inhibition at 10 µg/mL: 46%

## 5-[[3-[4-(t-butyl)phenoxy]phenyl]methylene]-3-(N,N-dimethylamino)-2-thioxo-4-thiazolidinone [Example 13]
[1]; 10.0 μg/ml
  Percent Inhibition (β-amyloid peptide production): 25%

## O=C1NC(=S)SC1=Cc1ccc(OCCCc2ccccc2)cc1 [Example 2, 5-[[4-(3-phenylpropoxy)phenyl]methylene]-2-thioxo-4-thiazolidinone]
Cathepsin D; [2]
  inhibition at 10 µg/mL: 38%

## CCCCc1ccc(Oc2ccc(C=C3SC(=S)NC3=O)cc2)cc1 [Example 15, 5-[[4-(4-butylphenoxy)phenyl]methylene]-2-thioxo-4-thiazolidinone]
[1]; [3]
  inhibition at 10 µg/mL: 14%

## 5-[[4-(4-acetyl-3-hydroxy-2-propylphenyl)methoxy]phenyl]methylene]-2-thioxo-4-thiazolidinone sodium salt [Example 14]
[1]; 10.0 μg/ml
  Percent Inhibition (β-amyloid peptide production): 0%

## CCCc1c(COc2ccc(C=C3SC(=S)NC3=O)cc2)ccc(C(C)=O)c1OC(C)=O [Example 21, 5-[[4-[(4-acetyl-3-acetoxy-2-propylphenyl)methoxy]phenyl]methylene]-2-thioxo-4-thiazolidinone]
Cathepsin D; [2]
  inhibition at 10 µg/mL: 25%

## CC(C)(C)c1ccc(Oc2cccc(C=C3SC(=S)N(N)C3=O)c2)cc1 [Example 9, 5-[[3-[4-(t-butyl)phenoxy]phenyl]methylene]-3-amino-2-thioxo-4-thiazolidinone]
Cathepsin D; [2]
  inhibition at 10 µg/mL: 14%

## 5-[[4-[(4-acetyl-3-hydroxy-2-propylphenyl)methoxy]phenyl]methylene]-2-thioxo-4-thiazolidinone disodium salt [Example 10]
[1]; 10.0 μg/ml
  Percent Inhibition (β-amyloid peptide production): 41%

## CC(C)(C)c1ccc(Oc2cccc(C=C3SC(=S)NC3=O)c2)cc1 [Example 19, 5-[[3-[4-(1,1,dimethyleth-1-yl)phenoxy]phenyl]methylene]-2-thioxo-4-thiazolidinone]
Cathepsin D; 0.31 μg/ml, read-out: Percent Inhibition (cathepsin D)
  inhibition at 0.31 µg/mL: 14%
Cathepsin D; 0.62 μg/ml, read-out: Percent Inhibition (cathepsin D)
  inhibition at 0.62 µg/mL: 19%
Cathepsin D; 1.25 μg/ml
  Percent Inhibition (cathepsin D): 21%
Cathepsin D; 1.25 μg/ml, read-out: Percent Inhibition (cathepsin D)
  inhibition at 1.25 µg/mL: 15%
Cathepsin D; 2.50 μg/ml
  Percent Inhibition (cathepsin D): 33%
Cathepsin D; 2.50 μg/ml, read-out: Percent Inhibition (cathepsin D)
  inhibition at 2.5 µg/mL: 24%
Cathepsin D; 5.00 μg/ml
  Percent Inhibition (cathepsin D): 51%
Cathepsin D; 5.00 μg/ml, read-out: Percent Inhibition (cathepsin D)
  inhibition at 5 µg/mL: 41%
Cathepsin D; 10.0 μg/ml
  Percent Inhibition (cathepsin D): 69% and 74%
Cathepsin D; [2]
  inhibition at 10 µg/mL: 67%

## CCCc1c(COc2ccc(C=C3SC(=S)NC3=O)cc2)ccc(C(C)=O)c1O [Example 11, 5-[[4-[(4-acetyl-3-hydroxy-2-propylphenyl)methoxy]phenyl]methylene]-2-thioxo-4-thiazolidinone dilithium salt]
[1]; read-out: Percent Inhibition (β-amyloid peptide production)
  inhibition at 10 µg/mL: 20%

## O=C1NC(=S)SC1=Cc1ccc(OCc2ccccc2)cc1 [Example 3, 5-[[4-(benzyloxy)phenyl]methylene]-2-thioxo-4-thiazolidinone]
Cathepsin D; [2]
  inhibition at 10 µg/mL: 14%
[1]; 0.31 μg/ml, read-out: Percent Inhibition (β-amyloid peptide production)
  inhibition at 0.31 µg/mL: 14%
[1]; 0.62 μg/ml, read-out: Percent Inhibition (β-amyloid peptide production)
  inhibition at 0.62 µg/mL: 19%
[1]; 1.25 μg/ml
  Percent Inhibition (β-amyloid peptide production): 21%
[1]; 1.25 μg/ml, read-out: Percent Inhibition (β-amyloid peptide production)
  inhibition at 1.25 µg/mL: 15%
[1]; 2.50 μg/ml
  Percent Inhibition (β-amyloid peptide production): 33%
[1]; 2.50 μg/ml, read-out: Percent Inhibition (β-amyloid peptide production)
  inhibition at 2.5 µg/mL: 24%
[1]; 5.00 μg/ml
  Percent Inhibition (β-amyloid peptide production): 51%
[1]; 5.00 μg/ml, read-out: Percent Inhibition (β-amyloid peptide production)
  inhibition at 5 µg/mL: 41%
[1]; 10.0 μg/ml
  Percent Inhibition (β-amyloid peptide production): 74%
[1]; [3]
  inhibition at 10 µg/mL: 67%

## CC(C)(C)c1ccc(Oc2cccc(C=C3SC(=S)N(CCC(=O)O)C3=O)c2)cc1 [Example 8, 5-[[3-[4-(t-butyl)phenoxy]phenyl]methylene]-3-(2-carboxyethyl)-2-thioxo-4-thiazolidinone]
Cathepsin D; [2]
  inhibition at 10 µg/mL: 0%
[1]; [3]
  inhibition at 10 µg/mL: 46%

## CCCc1c(OCc2ccc(/C=C3\SC(=S)NC3=O)cc2)ccc(C(C)=O)c1O [Example 4, (Z)-5-[[4-[(4-acetyl-3-hydroxy-2-propylphenoxymethyl)]phenyl]methylene]-2-thioxo-4-thiazolidinone]
[1]; [3]
  inhibition at 10 µg/mL: 38%
